Measurements as given in PMC3500442 (ACS Chemical Biology, 2012).

Target: T1, MJ0408 (MptD, archaeal DHNA) (Methanocaldococcus jannaschii, UniProt Q57851)
T1 sequence (Q57851 1-121): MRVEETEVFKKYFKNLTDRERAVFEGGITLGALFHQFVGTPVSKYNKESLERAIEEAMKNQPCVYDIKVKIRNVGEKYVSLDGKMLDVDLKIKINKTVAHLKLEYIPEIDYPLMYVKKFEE
Experiment: HPLC fluorescence after iodine oxidation
Assay type: biochemical
Details: 110 uM H2Neo, 8 mM MgCl2, 16 mM DTT, TES/KCl pH 7.4, 70 °C, argon

| Compound | HPLC fluorescence after iodine oxidation |
| --- | --- |
| Nc1nc2c(c(=O)[nH]1)N=C([C@H](O)[C@H](O)CO)CN2 [H2Neo, 7,8-dihydroneopterin] | it was found to catalyze the formation of 6-HMD from H2Neo |
| Nc1nc2c(c(=O)[nH]1)N=C(CO)CN2 [6-HMD, 6-hydroxymethyl-7,8-dihydropterin] | it was found to catalyze the formation of 6-HMD from H2Neo |
